Legend:
Format in all cases: in vivo
Tetranychus urticae = assay: Two spotted spider mite mortality on French bean, abamectin with aromatic ester adjuvants; conditions: for % mortality of Tetranychus urticae: adjuvant 0.1% v/v where present, French bean, 10 days, larva and adults averaged
Method: The efficacy of the benzoic acid esters Finsolv® SB (isostearyl benzoate) and Finsolv® TN (C12-C15 alkyl benzoate) and the aromatic ester ethoxylate Dermol®25-3B (C12-C15 alkyl ethoxy (3) benzoate) as adjuvants in compositions containing abamectin was tested and compared to the efficacy of abamectin compositions which lack this type of adjuvant. The adjuvants were present at 0.1% v/v in the abamectin compositions. The surfactants polyoxyethylene sorbitan monooleate and an ethoxylated castor oil were also present in all the abamectin compositions tested.
Two week old French bean (Phaseolus vulgaris) plants were infested with a mixed population of two spotted spider mite Tetranychus urticae. One day after infestation the plants were treated with the test compositions, with a track sprayer from the top with a rate of 200 liters per hectare. Plants were incubated in the greenhouse for 10 days and the evaluation was done on mortality against Larva and Adults, just on the lower side (untreated) of the leaves. Each experiment was replicated twice and the results were averaged. The mortality against Larva and Adults was then averaged.

[1] = test system: four weed species (ABUTH, CHEAL, DIGSA, SETVI); assay: Glasshouse weed test, nicosulfuron with adjuvants, mean across species; conditions: mean over two rates
Method: (§1) The aromatic ester Finsolv® TN (C12-C15 alkyl benzoate) was tested in a glasshouse against four weed species using the herbicide nicosulfuron. An agrochemical composition was prepared containing 0.2% v/v of the adjuvant in a track sprayer, and was applied at a volume of 200 liters per hectare. Nicosulfuron was applied at either 30 or 60 grams of pesticide per hectare on each of the weed species. The weed species and their growth stage at spraying were Abutilon theophrasti (ABUTH; growth stage 13), Chenopodium album (CHEAL; growth stage 14), Digitaria sanguinalis (DIGSA; growth stage 13), and Setaria viridis (SETVI; growth stage 13).
(§2) Each spray test replicated three times. The efficacy of the herbicide was assessed visually and expressed as a percentage of the leaf area killed. Samples were assessed at time periods of 7, 14 and 20 days following application. The results shown in Table 6 below are mean averages over the two rates of nicosulfuron, three replicates and the three assessment timings, and are compared to the efficacy of nicosulfuron in the absence of an adjuvant, and nicosulfuron in the presence of the commercially available tank-mix adjuvant, Atplus411F®.
(§3) A second experiment was conducted to assess the efficacy of Finsolv® TN as an adjuvant in compositions of nicosulfuron. This was carried out as outlined above, with the following change: samples were assessed at 14 and 20 days post application.
(§4) The results shown in Table 7 below are mean averages over the two rates of nicosulfuron, three replicates and the two assessment timings, and are compared to the efficacy of nicosulfuron in the absence of an adjuvant, and nicosulfuron in the presence of the commercially available tank-mix adjuvant, Atplus411F®.
(§5) The aromatic esters Benzoate 1 (see Example 9), Benzoflex 354 (2,2,4-trimethyl-1,3-pentanediol dibenzoate) and Finsolv® SB (stearyl benzoate) were tested in a glasshouse against four weed species using the herbicide nicosulfuron. Nicosulfuron was applied at either 30 or 60 grams of pesticide per hectare on each of the weed species. The weed species and their growth stage at spraying were Abutilon theophrasti (ABUTH; growth stage 13), Chenopodium album (CHEAL; growth stage 14), Digitaria sanguinalis (DIGSA; growth stage 13), and Setaria viridis (SETVI; growth stage 13).
as §2, with “of” for “of 7,”, “Table 14” for “Table 6”, “the two” for “the three”
An agrochemical composition was prepared containing 0.2% v/v of the adjuvant in a track sprayer and was applied at a volume of 200 liters per hectare. The adjuvant oils were emulsified using a small amount of the surfactant Pluronic® PE 10500, which was present in the composition at a concentration of 0.02% v/v. Nicosulfuron was applied at either 30 or 60 grams of pesticide per hectare on each of the weed species. The weed species and their growth stage at spraying were Abutilon theophrasti (ABUTH; growth stage 13), Chenopodium album (CHEAL; growth stage 14-15), Digitaria sanguinalis (DIGSA; growth stage 14), and Setaria viridis (SETVI; growth stage 13-14).
Each spray test replicated three times. The efficacy of the herbicide was assessed visually and expressed as a percentage of the leaf area killed. Samples were assessed at time periods of 14 and 21 days following application. […]

[2] = test system: Abutilon theophrasti (ABUTH); assay: Glasshouse weed test, nicosulfuron with adjuvants; conditions: mean over two rates
Method: as §1, §2, §3, §4, §5
as §2, with “of” for “of 7,”, “Table 14” for “Table 6”, “the two” for “the three”

Setaria viridis (SETVI) = assay: Glasshouse weed test, nicosulfuron with adjuvants; conditions: mean over two rates
Method: as §1, §2, §3, §4, §5
as §2, with “of” for “of 7,”, “Table 14” for “Table 6”, “the two” for “the three”

[3] = test system: Digitaria sanguinalis (DIGSA); assay: Glasshouse weed test, nicosulfuron with adjuvants; conditions: mean over two rates
Method: as §1, §2, §3, §4, §5
as §2, with “of” for “of 7,”, “Table 14” for “Table 6”, “the two” for “the three”

[4] = test system: Chenopodium album (CHEAL); assay: Glasshouse weed test, nicosulfuron with adjuvants; conditions: mean over two rates
Method: as §1, §2, §3, §4, §5
as §2, with “of” for “of 7,”, “Table 14” for “Table 6”, “the two” for “the three”

[5] = Table 6, Example 5: nicosulfuron 30 or 60 g/ha, adjuvant 0.2% v/v, three replicates, 7, 14 and 20 days
[6] = Table 7, Example 5 second experiment: nicosulfuron 30 or 60 g/ha, adjuvant 0.2% v/v, three replicates, 14 and 20 days
[7] = Table 14, Example 10: nicosulfuron 30 or 60 g/ha, three replicates, 14 and 20 days

Compound: CC(C)CCCCCCCCCCCCCCCOC(=O)c1ccccc1 [Finsolv® SB, Isostearyl benzoate]
- Mortality of Tetranychus urticae (Tetranychus urticae; aromatic ester composition 0.1% v/v without abamectin present): no mortality

Compound: COc1cc(OC)nc(NC(=O)NS(=O)(=O)c2ncccc2C(=O)N(C)C)n1 [Nicosulfuron, nicosulfuron]
- Mean percentage kill, Mean across species [1, 5]: 20.1 B %
- Mean percentage kill, Mean across species [1, 6]: 29.1 B %
- Mean percentage kill, Mean across species [1, 7]: 59.6 B %
- Mean percentage kill, Mean across species ([1]; Table 19, Example 15: nicosulfuron 30 or 60 g/ha, adjuvant 0.2% v/v emulsified with Pluronic PE 10500 0.02% v/v, three replicates, 14 and 21 days): 29.8B %
- Mean percentage kill, Mean across species ([1]; Table 23, Example 19: absence of an adjuvant, nicosulfuron 30 or 60 g/ha, three replicates, 14 and 21 days): 40.1%
- Mean percentage kill, Mean across species ([1]; Table 33, Example 33: nicosulfuron 30 or 60 g/ha, three replicates, 14 and 21 days): 40.1B %
- Mean percentage kill ABUTH [2, 5]: 19.4 B %
- Mean percentage kill ABUTH [2, 6]: 29.2 B %
- Mean percentage kill ABUTH [2, 7]: 56.7 C %
- Mean percentage kill SETVI (Setaria viridis (SETVI); [5]): 33.3 C %
- Mean percentage kill SETVI (Setaria viridis (SETVI); [6]): 61.3 C %
- Mean percentage kill SETVI (Setaria viridis (SETVI); [7]): 81.0 B %
- Mean percentage kill DIGSA [3, 5]: 1.1 B %
- Mean percentage kill DIGSA [3, 6]: 0.0 B %
- Mean percentage kill DIGSA [3, 7]: 56.3 B %
- Mean percentage kill CHEAL [4, 5]: 26.7 B %
- Mean percentage kill CHEAL [4, 6]: 25.8 B %
- Mean percentage kill CHEAL [4, 7]: 44.6 B %

Compound: abamectin
- % mortality of Tetranychus urticae (Tetranychus urticae; abamectin 0.2 ppm): 0%
- % mortality of Tetranychus urticae (Tetranychus urticae; abamectin 0.4 ppm): 0%
- % mortality of Tetranychus urticae (Tetranychus urticae; abamectin 0.8 ppm): 27%
- % mortality of Tetranychus urticae (Tetranychus urticae; abamectin 1.5 ppm): 70%
- % mortality of Tetranychus urticae (Tetranychus urticae; abamectin 3 ppm, lower untreated leaf side): 95%
